From PubChem BioAssay AID192 (DTP/NCI, 2004)
Several values for one entry are separate records, joined by “and”; a condition that tells them apart may be missing. Equal values may be shown once. Toxic doses and inconclusive results are not listed. Rule for the calls: active = survival T/C of 150% or more; inactive = T/C below 125% in these data.

Test system: BDF1 mice, B16 melanoma ip, median survival T/C
Assay: NCI In Vivo Anticancer Drug Screen. Data for tumor model B16 Melanoma (intraperitoneal) in B6D2F1 (BDF1) mice
Conditions: endpoint: median survival time, higher = longer survival
In short: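 Compounds were tested in mice carrying transplantable tumors. Survival or tumor size was recorded, and each value is the treated-group measurement (T) divided by that of the vehicle-treated control group (C).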

[1] = dose: 12.5 mg/kg/injection, schedule: Q01DX009 (ip), vehicle: Klucel (hydroxypropylcellulose) (HPC)
[2] = dose: 25.0 mg/kg/injection, schedule: Q01DX009 (ip), vehicle: Klucel (hydroxypropylcellulose) (HPC)
[3] = dose: 50.0 mg/kg/injection, schedule: Q01DX009 (ip), vehicle: Klucel (hydroxypropylcellulose) (HPC)
[4] = dose: 25.0 mg/kg/injection, schedule: Q01DX009 (ip), vehicle: saline
[5] = dose: 50.0 mg/kg/injection, schedule: Q01DX009 (ip), vehicle: saline
[6] = dose: 100.0 mg/kg/injection, schedule: Q01DX009 (ip), vehicle: saline
[7] = dose: 200.0 mg/kg/injection, schedule: Q01DX009 (ip), vehicle: saline
[8] = dose: 400.0 mg/kg/injection, schedule: Q01DX009 (ip), vehicle: saline
[9] = dose: 100.0 mg/kg/injection, schedule: Q01DX009 (ip), vehicle: other
[10] = dose: 200.0 mg/kg/injection, schedule: Q01DX009 (ip), vehicle: other
[11] = dose: 100.0 mg/kg/injection, schedule: Q01DX009 (ip), vehicle: Klucel (hydroxypropylcellulose) (HPC)
[12] = dose: 200.0 mg/kg/injection, schedule: Q01DX009 (ip), vehicle: Klucel (hydroxypropylcellulose) (HPC)
[13] = dose: 400.0 mg/kg/injection, schedule: Q01DX009 (ip), vehicle: Klucel (hydroxypropylcellulose) (HPC)
[14] = dose: 100.0 mg/kg/injection, schedule: Q01DX009 (ip), vehicle: saline with Tween-80
[15] = dose: 200.0 mg/kg/injection, schedule: Q01DX009 (ip), vehicle: saline with Tween-80
[16] = dose: 6.25 mg/kg/injection, schedule: Q01DX009 (ip), vehicle: saline with Tween-80
[17] = dose: 100.0 mg/kg/injection, schedule: Q04DX003 (ip), vehicle: Klucel (hydroxypropylcellulose) (HPC)
[18] = dose: 200.0 mg/kg/injection, schedule: Q04DX003 (ip), vehicle: Klucel (hydroxypropylcellulose) (HPC)
[19] = dose: 12.5 mg/kg/injection, schedule: Q01DX009 (ip), vehicle: saline

Measured: T/C

CCC(C)C(C(=O)OCCN(CC)CC)c1ccccc1 (configuration not stated)
inactive: [1] 90 % of control | [2] 96 % of control | [3] 90 % of control and 93 % of control

C[n+]1c(-c2cccc(OCCOCCOc3cccc(-c4c5cc(N)ccc5c5ccc(N)cc5[n+]4C)c3)c2)c2cc(N)ccc2c2ccc(N)cc21
inactive: dose: 0.5 mg/kg/injection, schedule: Q01DX009 (ip), vehicle: water 110 % of control

CN1CCC=C(C(=O)N2c3ccccc3CCc3ccccc32)C1
inactive: [4] 97 % of control | [5] 87 % of control | [6] 91 % of control

CN(C)S(=O)(=O)c1ccc2c(c1)N(CCCN1CCN(S(C)(=O)=O)CC1)c1ccccc1S2
inactive: dose: 0.78 mg/kg/injection, schedule: Q01DX009 (ip), vehicle: Klucel (hydroxypropylcellulose) (HPC) 87 % of control | dose: 1.56 mg/kg/injection, schedule: Q01DX009 (ip), vehicle: Klucel (hydroxypropylcellulose) (HPC) 90 % of control | dose: 3.12 mg/kg/injection, schedule: Q01DX009 (ip), vehicle: Klucel (hydroxypropylcellulose) (HPC) 90 % of control | [1] 95 % of control

CCOC(=O)N(Cc1ccccc1)C1CC1
inactive: dose: 0.78 mg/kg/injection, schedule: Q04DX003 (ip), vehicle: saline 101 % of control | dose: 1.56 mg/kg/injection, schedule: Q04DX003 (ip), vehicle: saline 93 % of control | dose: 3.12 mg/kg/injection, schedule: Q04DX003 (ip), vehicle: saline 97 % of control | dose: 6.25 mg/kg/injection, schedule: Q04DX003 (ip), vehicle: saline 101 % of control | dose: 12.5 mg/kg/injection, schedule: Q04DX003 (ip), vehicle: saline 105 % of control | [4] 105 % of control | [5] 100 % of control | [6] 94 % of control | [7] 102 % of control | [8] 107 % of control

Cc1ccc(C(=O)/C=C/c2ccccc2)cc1
inactive: dose: 25.0 mg/kg/injection, schedule: Q01DX009 (ip), vehicle: other 100 % of control | dose: 50.0 mg/kg/injection, schedule: Q01DX009 (ip), vehicle: other 105 % of control | [9] 107 % of control | [10] 100 % of control

Cc1cc(C)c(OCC2CO2)c(C)c1 (configuration not stated)
inactive: [11] 103 % of control | [12] 96 % of control | [13] 90 % of control

CCN(C=O)CC
inactive: [6] 117 % of control | [7] 115 % of control | [8] 107 % of control

N=C(N)NC(=N)Nc1ccc(NC(=O)Nc2ccc(Nc3c4ccccc4nc4cc([N+](=O)[O-])ccc34)cc2)cc1
inactive: dose: 0.8 mg/kg/injection, schedule: Q01DX009 (ip), vehicle: water 98 % of control | dose: 1.6 mg/kg/injection, schedule: Q01DX009 (ip), vehicle: water 100 % of control | dose: 3.13 mg/kg/injection, schedule: Q01DX009 (ip), vehicle: water 102 % of control | dose: 6.25 mg/kg/injection, schedule: Q01DX009 (ip), vehicle: water 104 % of control | dose: 12.5 mg/kg/injection, schedule: Q01DX009 (ip), vehicle: water 94 % of control

CCNc1nc(Cl)nc(NC(C)C)n1
inactive: dose: 50.0 mg/kg/injection, schedule: Q01DX009 (ip), vehicle: saline with Tween-80 100 % of control | [14] 102 % of control | [15] 104 % of control

CCCCNC(=O)Nc1ccc(C(=O)OCC(C)C)cc1
inactive: [14] 99 % of control | [15] 96 % of control

C=C1C(=O)C23[C@H](O)C1CC[C@H]2[C@]12COC3(O)[C@@H](O)[C@@H]1C(C)(C)CC[C@@H]2O
inactive: dose: 1.56 mg/kg/injection, schedule: Q01DX009 (ip), vehicle: saline with Tween-80 105 % of control | dose: 3.12 mg/kg/injection, schedule: Q01DX009 (ip), vehicle: saline with Tween-80 93 % of control | [16] 96 % of control

COC(=O)C1CCC(C(=O)O)CC1 (configuration not stated)
inactive: [17] 100 % of control | [18] 100 % of control

CNC(=O)ON=C1CCC(CC2CCCCC2)CC1 (configuration not stated)
inactive: [2] 93 % of control | [3] 100 % of control | [11] 103 % of control

CCN(C(=O)CCl)C(C)(C)C(SSSC(c1ccc(Cl)cc1)C(C)(C)N(CC)C(=O)CCl)c1ccc(Cl)cc1 (configuration not stated)
inactive: [1] 100 % of control | [2] 98 % of control

CCCCCCCCCC(=O)CCCC
inactive: [9] 94 % of control | [10] 92 % of control

Oc1c(CNCCCN2CCCC2)cc(Cl)c2cccnc12
inactive: [19] 94 % of control and 95 % of control and 106 % of control | [4] 93 % of control and 98 % of control and 102 % of control | [5] 94 % of control and 97 % of control and 98 % of control | [6] 103 % of control and 108 % of control and 109 % of control

CCC1CC(O)c2c(O)c3c(c(O)c2C1O)C(=O)c1cccc(O)c1C3=O (configuration not stated) (tested in a mixture with another compound)
inactive: dose: 0.01 mg/kg/injection, schedule: Q01DX009 (ip), vehicle: saline 95 % of control | dose: 0.03 mg/kg/injection, schedule: Q01DX009 (ip), vehicle: saline 86 % of control | dose: 0.06 mg/kg/injection, schedule: Q04DX003 (ip), vehicle: saline 102 % of control | dose: 0.12 mg/kg/injection, schedule: Q04DX003 (ip), vehicle: saline 109 % of control | dose: 15.0 micrograms/kg/injection, schedule: Q01DX009 (ip), vehicle: saline 119 % of control

Cc1cc(Cc2ccc(N=C=O)c(C)c2)ccc1N=C=O
inactive: dose: 3.13 mg/kg/injection, schedule: Q01DX009 (ip), vehicle: saline with Tween-80 89 % of control | [16] 92 % of control | dose: 12.5 mg/kg/injection, schedule: Q01DX009 (ip), vehicle: saline with Tween-80 92 % of control and 102 % of control

C[n+]1ccc(Nc2ccc(NC(=O)c3ccc(Nc4cc[n+](C)c5ccc([N+](=O)[O-])cc45)cc3)cc2)cc1
inactive: dose: 4.0 mg/kg/injection, schedule: Q01DX009 (ip), vehicle: saline 107 % of control | dose: 8.0 mg/kg/injection, schedule: Q01DX009 (ip), vehicle: saline 102 % of control | dose: 16.0 mg/kg/injection, schedule: Q01DX009 (ip), vehicle: saline 107 % of control | dose: 32.0 mg/kg/injection, schedule: Q01DX009 (ip), vehicle: saline 103 % of control

c1ccc(-c2nc(N3CCOCC3)nc3ccccc23)cc1
inactive: dose: 100.0 mg/kg/injection, schedule: Q04DX003 (ip), vehicle: saline with Tween-80 104 % of control | dose: 200.0 mg/kg/injection, schedule: Q04DX003 (ip), vehicle: saline with Tween-80 88 % of control

O=c1[nH]c(=O)n(C2CC(O)C(CO)O2)cc1C(F)(F)F (configuration not stated)
inactive: [19] 104 % of control | dose: 20.0 mg/kg/injection, schedule: Q01DX009 (ip), vehicle: saline 105 % of control | [4] 102 % of control | [5] 112 % of control

COc1ccc(NC(=O)Oc2ccc(Cl)c(C)c2)cc1
inactive: [15] 116 % of control | dose: 400.0 mg/kg/injection, schedule: Q01DX009 (ip), vehicle: saline with Tween-80 105 % of control

CC(=O)c1c(O)c(C)c(O)c2c1OC1=CC(=O)C(C(C)=O)C(=O)C12C (configuration not stated)
inactive: dose: 5.0 mg/kg/injection, schedule: Q01DX009 (ip), vehicle: gum acacia 107 % of control | dose: 6.25 mg/kg/injection, schedule: Q01DX009 (ip), vehicle: gum acacia 92 % of control | dose: 12.5 mg/kg/injection, schedule: Q01DX009 (ip), vehicle: gum acacia 108 % of control | dose: 20.0 mg/kg/injection, schedule: Q01DX009 (ip), vehicle: gum acacia 100 % of control | dose: 40.0 mg/kg/injection, schedule: Q01DX009 (ip), vehicle: gum acacia 102 % of control | dose: 50.0 mg/kg/injection, schedule: Q01DX009 (ip), vehicle: gum acacia 108 % of control | dose: 80.0 mg/kg/injection, schedule: Q01DX009 (ip), vehicle: gum acacia 105 % of control | dose: 100.0 mg/kg/injection, schedule: Q01DX009 (ip), vehicle: gum acacia 97 % of control

CSc1ncnc2nc[nH]c12
inactive: [3] 104 % of control | [11] 100 % of control | [12] 102 % of control | [13] 88 % of control

COc1ccc2c(c1)C(=O)CCN2
inactive: [17] 114 % of control | [18] 107 % of control | dose: 400.0 mg/kg/injection, schedule: Q04DX003 (ip), vehicle: Klucel (hydroxypropylcellulose) (HPC) 99 % of control
